The subject of this test is C57BL/6 mice. The test can be described thus: Marble burying test (MBT) in mice. Type of test: in vivo, mouse. Particulars: 30-minute period, compared to vehicle, FIG. 3. The method, then: Compound 1 produced an anxiolytic-like effect in the marble burying test (MBT) in C57BL/6 mice (FIG. 3).
Animals. Adult male C57BL/6 mice, aged 8-10 weeks (body weight 20-25 g) were used in these experiments. Animals were housed under controlled temperatures and 12-hour light/dark cycles (lights on between 07:00-19:00 h), with ad libitum food and water. This study was carried out in strict accordance with the requirements of the Committee for the Purpose of Control and Supervision of Experiments on Animals (CPCSEA), India. All efforts were made to minimize suffering.
Marble Burying Test (MBT). […] Mice were handled for about 2 min daily for the 3 days prior to the beginning of the experimental procedure. Twenty glass marbles (16 mm diameter) were placed with equal distances in a 5×4 pattern on a 5-cm layer of corn-cob bedding, with marbles at least 2 cm from the borders of the cage. The total number of marbles buried were counted in three 10-minute time bins (total 30 minutes). A marble was considered buried when it was >⅔ covered by bedding material.
Statistical Analysis. The data points shown are the mean±standard error of the mean (SEM). Analysis was performed using GraphPad Prism 6. Comparisons between groups were performed using the one-way analysis of variance (ANOVA), followed by Dunnett's test for comparisons to vehicle. […]

The text below walks through data of patent US20260317319A1, “NOVEL ERGOLINES AND METHODS OF TREATING MOOD DISORDERS” (Gilgamesh Pharma Inc., priority 2023, published 2026).

With `CCCN1C[C@H](C(=O)N(CC)CC)C=C2c3cccc4[nH]cc(c34)C[C@H]21` [Compound 1, (6aR,9R)—N,N-diethyl-7-propyl-4,6,6a,7,8,9-hexahydroindolo[4,3-fg]quinoline-9-carboxamide], the “number of marbles buried” value is given as “reduced the number of marbles buried in a 30-minute period compared to vehicle”.
